# Source: US20060058346A1, “Novel enantiomers of etrahydroisoquinoline derivatives and theirpharmaceutically acceptable salts, their preparations and pharmaceutical compositions” (priority 2002, published 2006)
# Read-outs that look alike come from different tables or passages of the source.
# Key:
# right auricle muscle = assay: Heart rates (beats) of right auricle muscle excised from rats; set-up: species or system rat; conditions: for Heart Rates of Auricle Muscles: vehicle control:100%
# Experimental: Immediately after Sprague-Dawley rats (female or male) were anaesthetized with pentobarbital sodium (50 mg/kg, i.m.), the thorax was opened to excise the heart. The heart was submerged in Krebs solution, and left auricle muscle and right auricle muscle were then isolated. The left auricle muscle was placed in an organ bath for recording of contractile force, and applied with electrical field stimulation (voltage 10% higher than threshold voltage, 1 Hz frequency, 5 ms duration). In the case of right auricle muscle, which contracts spontaneously, the number of continuous beats was recorded. In this experiment, to measure contractile fore of the two auricle muscles, the organ bath was warmed to 37° C., and as a physiological solution, Krebs solution (119.8 mM NaCl, 4.6 mM KCl, 2.5 mM CaCl2, 1.2 mM MgCl2, 25 mM NaHCO3, 1.2 mM KH2PO4, 10 mM glucose, 1 mM EDTA, pH 7.4) was used. The Krebs solution (pH 7.4) was continuously saturated with a gas mixture of 95% O2 and 5% CO2. The auricle muscle was under a tension of 1 g, and Krebs solution was exchanged with fresh solution at intervals of 20 minutes while equilibrium was maintained during a recording period of 60 minutes.
# [1] = test system: RAW 264.7 macrophage cells; assay: Nitric oxide production in macrophage cell stimulated by LPS (Griess); format: cell-based; conditions: for inhibition of production of NO: LPS-stimulated macrophage cell; for NO production by LPS in macrophage cell: LPS 1 μg/ml
# Experimental: RAW 264.7 macrophage cells were plated on 100 mm culture dishes at a density of 1-2×10^5 cells. Thereafter, the said macrophage cell was incubated in DMEM medium containing 10% fetal calf serum (heat-inactivated), 100 U/ml penicillin, and […] streptomycin in a CO2 incubator. The said macrophage cell was incubated therein confluently. The said incubated macrophage cells were transferred to serum-free DMEM medium, and further incubated therein for about 24 hours. Thereafter, macrophage cells were stimulated with LPS (1 μg/ml) for about 8 hours. (In this progress, experimental group was divided into two groups, group to which the compound was administered, and group to which the compound was not.) Then, nitrite quantification was achieved by performing calorimetric reaction for produced nitrite with Griess reagent and then measuring absorbance at 550 nm, while using NaNO2 as a standard.
# rat PRP = assay: Inhibition of platelet aggregation in rat PRP; format: cell-based; conditions: for IC50: Platelet, rat PRP
# Experimental: Male rat (weighing 200±20 g) was anaesthetized with ether. The blood (nine volumes) was collected from heart using a plastic syringe containing 2.2% sodium citrate (one volume). The collected blood was centrifuged at 200×g for 10 minutes to give supernatant platelet-rich plasma (PRP). The residue was centrifuged again at 700×g for 30 minutes, giving platelet-poor plasma (PPP) for experiment. We used a platelet analyzer to count the number of platelet of the PRP. PRP was diluted with physiological saline solution to prepare solution containing platelets in an amount of 400-450×10^6/ml. The inhibitory effects of the compound represented by formulas 3 to 8 was evaluated by platelet aggregation analyzer, and the inhibitory effect of each compound is given as % below. That is, after PRP was incubated for 3 minutes at 37° C., the compounds or a carrier was added thereto, and after 1 min, platelet aggregation-inducing agent such as ADP, collagen, arachidonic acid (AA), U46619 or epinephrine was added thereto, followed by investigation of turbidity caused by aggregation of platelets. % Inhibition=A−B/A×100 [arithmetic formula 1] • (A: Platelet aggregation rate in group treated with an aggregation-inducing agent; • B: Platelet aggregation rate in group treated with both an aggregation-inducing agent and the enantiomers simultaneously)
# [2] = test system: rat with DIC and MOF induced by endotoxin; assay: Endotoxin-induced DIC and multiple organ failure in rat; format: in vivo
# Experimental: Rats (Crj:CD(SD); 250±20 g) were used to test sample. Before the compound was administered, the rat was not fed. The compound was orally administered one time per day for two days in an amount of 10 mg˜25 mg/10 ml/kg/day. Distilled water (control group and LPS group) or enantiomer was administered to the rat repeatedly. After one hour, rat was anaesthetized with intramuscular injection of 50 mg/kg of pentobarbital. […] Thereafter, 50 mg/kg of pentobarbital was injected at 2 hour to the rat by intramuscular injection. Therefore, the rat was anaesthetized for all the experiment and operation.
# The blood (2 ml for FDP and 6 ml for other variables) was collected from abdominal artery using a plastic syringe, into glass tube containing soy bean trypsin inhibitor and Bothrops atrox venom to measure FDP and into plastic tube containing 2.2% sodium citrate (1/10, volume/volume). The aggregated blood was centrifuged at 1200×g for 5 minutes two times. Before measurement of FDP, the supernatant was stored at freezer for at least 12 hours. Citrated blood was centrifuged at 2000×g for 30 minutes. The supernatant was used for measurement of fibrinogen and PT or APTT time. The aggregated blood collected in glass tube was disposed at the room temperature for 30 min, centrifuged to give the serum for measurement of AST and BUN.
# Platelet from total citrated blood was counted by using automatic platelet counter (PLT-4, Texas International Lab.) PT or APTT time was measured by Beckton Dickenson BBL Fibrosystem (Coctkeysville, USA). FDP analysis was accomplished by using Thrombo-wellcotest kit. The said analysis was accomplished by up and down dilution method semi-quantitatively. Measurement of AST and BUN was accomplished by using Autobiochemical analyzer (Hitach 747, Japan).
# LPS-injected rat = assay: Survival in LPS-injected rat; format: in vivo
# Experimental: Rats (25˜30 g, ICR), originated from NIH cancer institute (Bethesda, Md., USA) were purchased from Korea Test Animal Corp. (Unsung, Korea). 20 mg/kg of LPS was injected to abdominal cavity of the rat. Thereafter, survival was observed every 24 hours for seven days, to investigate effect of enantiomer on the survival in LPS-injected rat. The compound represented by formula 3 to 8 was administered 30 min before the LPS injection.
# [3] = Acute toxicity in rat (LD50); format: in vivo; conditions: Sprague-Dawley, in vivo
# Experimental: Sprague-Dawley rats (six weeks) were used as test sample. Each group was comprised of two rats. […] The said emulsion was administered to two rats one times using intravenous injection and intraperitoneal injection.
# [4] = ADP 2 − 5 × 10^−6 M, read-out: IC50 platelet aggregation, ADP
# [5] = U46619 1.5 × 10^−6 M with threshold collagen, read-out: IC50 platelet aggregation, U46619
# [6] = arachidonic acid 1 − 4 × 10^−5 M with threshold collagen, read-out: IC50 platelet aggregation, AA
# [7] = collagen 2 − 5 × 10^−6 g/ml, read-out: IC50 platelet aggregation, collagen
# [8] = epinephrine 1 − 4 × 10^−6 M with threshold collagen, read-out: IC50 platelet aggregation, Epinephrine
# [9] = 15 mg/kg compound 30 min before LPS 20 mg/kg i.p.
# [10] = 30 mg/kg compound 30 min before LPS 20 mg/kg i.p.
# [11] = ip, single intraperitoneal injection, read-out: LD50, Intraperitioneal injection
# [12] = single intravenous injection, read-out: LD50, Intravenous injection
SMILES,effect on heart rates of auricle muscles (right auricle muscle),Heart Rates of Auricle Muscles (right auricle muscle; 1 × 10^−4 M) [%],Heart Rates of Auricle Muscles (right auricle muscle; 1 × 10^−5 M) [%],Heart Rates of Auricle Muscles (right auricle muscle; 1 × 10^−6 M) [%],Heart Rates of Auricle Muscles (right auricle muscle; 1 × 10^−7 M) [%],Heart Rates of Auricle Muscles (right auricle muscle; 3 × 10^−5 M) [%],Heart Rates of Auricle Muscles (right auricle muscle; 3 × 10^−6 M) [%],Heart Rates of Auricle Muscles (right auricle muscle; 3 × 10^−7 M) [%],inhibition of production of NO [1],NO production by LPS in macrophage cell ([1]; compound 10 μM) [µM],NO production by LPS in macrophage cell ([1]; compound 50 μM) [µM],NO production by LPS in macrophage cell ([1]; compound 100 μM) [µM],IC50 (rat PRP; [4]) [µM],IC50 (rat PRP; [5]) [µM],IC50 (rat PRP; [6]) [µM],IC50 (rat PRP; [7]) [µM],IC50 (rat PRP; [8]) [µM],survival after six days (LPS-injected rat; [10]) [%],"LD50 [3, 11] [mg/kg]","LD50 [3, 12] [mg/kg]",other results
"Oc1ccc(C[C@H]2NCCc3cc(O)c(O)cc32)cc1 [Formula 4, (R)-6,7-Dihydroxy-1-(p-hydroxyphenylmethyl)-1,2,3,4-tetrahydroisoquinoline]",increased,140,120,110,100,130,115,100,inhibited production of NO weakly than S-enantiomer did,20.1,10.3,8.2,≥ 1000,15,11,300,14,67,262,95,"inhibition of platelet aggregation induced by ADP (rat PRP; even at the concentration as high as 1×10^−3 M): did not inhibit; serum level of AST ([2]; LPS 15 mg/kg i.v. 4 hours): at the normal level; serum level of BUN, formula 3 versus formula 4 ([2]; LPS 15 mg/kg i.v. 4 hours): no difference; survival after six days (LPS-injected rat; [9]): 60%"
"Oc1cc2c(cc1O)[C@@H](Cc1ccc3ccccc3c1)NCC2 [Formula 8, (R)-6,7-Dihydroxy-1-(β-naphthylmethyl)-1,2,3,4-tetrahydroisoquinoline]",no effect,105,105,100,100,105,100,100,never or slightly inhibited production of NO,46,42,40,540,49,7.9,150,15,72,214,80,platelet concentration compared with LPS only ([2]; FIG. 2): higher
"Oc1cc2c(cc1O)[C@@H](Cc1cccc3ccccc13)NCC2 [Formula 6, (R)-6,7-Dihydroxy-1-(α-naphthylmethyl)-1,2,3,4-tetrahydroisoquinoline]",no effect,71,85,93.75,100,75,94,93.75,never or slightly inhibited production of NO,36,34,38,540,20,11,140,2.4,93,230,88,serum level of AST ([2]; LPS 15 mg/kg i.v. 4 hours): at the normal level; survival after six days (LPS-injected rat; [9]): 73%
